Source: patent US20100222349A1, “QUINOLINE DERIVATIVES USED TO TREAT INFLAMMATORY AND ALLERGIC DISEASES” (Glaxo Group Limited, priority 2007, published 2010)

Legend:
histamine H3 receptor = biological target: T1, histamine H3 receptor (Homo sapiens, UniProt Q9Y5N1); assay: Histamine H3 functional antagonist assay (GTPγS, membranes); format: biochemical; settings: CHO K1 membranes, [35S]-GTPγS, histamine at EC80; read-out: average pKi (pKb) at H3 (converted)
T1 construct: expressed in transfected cells; host or cells: CHO K1 cells with pSwitch/pGeneH3 (GeneSwitch, mifepristone-induced), clone 3H3; membrane preparation
Method: The histamine H3 cDNA is isolated from its holding vector, pcDNA3.1 TOPO (InVitrogen), by restriction digestion of plasmid DNA with the enzymes BamH1 and Not-1 and is ligated into the inducible expression vector pGene (InVitrogen) digested with the same enzymes. The GeneSwitchTM system (a system where in transgene expression is switched off in the absence of an inducer and switched on in the presence of an inducer) is performed as described in U.S. Pat. Nos. 5,364,791; 5,874,534; and 5,935,934. Ligated DNA is transformed into competent DH5α E. coli host bacterial cells and is plated onto Luria Broth (LB) agar containing ZeocinTM (an antibiotic which allows the selection of cells expressing the sh ble gene which is present on pGene and pSwitch) at 50 μgml^-1. Colonies containing the re-ligated plasmid are identified by restriction analysis. DNA for transfection into mammalian cells is prepared from 250 ml cultures of the host bacterium containing the […]3 plasmid and is isolated using a DNA preparation kit (Qiagen Midi-Prep) as per manufacturers guidelines (Qiagen). CHO K1 cells previously transfected with the pSwitch regulatory plasmid (InVitrogen) are seeded at 2×10^6 cells per T75 flask in Complete Medium, containing Hams F12 (GIBCOBRL, Life Technologies) medium supplemented with 10% v/v dialysed foetal bovine serum, L-glutamine, and hygromycin (100 μgml^-1), 24 h prior to use. Plasmid DNA is transfected into the cells using Lipofectamine plus according to the manufacturer's guidelines (InVitrogen). 48 h post transfection, cells are placed into complete medium supplemented with 500 μgml^-1 ZeocinTM. 10-14 days post selection, 10 nM Mifepristone (InVitrogen) is added to the culture medium to induce the expression of the receptor. 18 h post induction, cells are detached from the flask using ethylenediamine tetra-acetic acid (EDTA; 1:5000; InVitrogen), following several washes with PBS, pH 7.4 and are resuspended in Sorting Medium containing Minimum Essential Medium (MEM), without phenol red, and are supplemented with Earles salts and 3% Foetal Clone II (Hyclone). Approximately 1×10^7 cells are examined for receptor expression by staining with a rabbit polyclonal antibody, 4a, raised against the N-terminal domain of the histamine H3 receptor, are incubated on ice for 60 min, followed by two washes in sorting medium. Receptor bound antibody is detected by incubation of the cells for 60 min on ice with a goat anti rabbit antibody, conjugated with Alexa 488 fluorescence marker (Molecular Probes). Following two further washes with Sorting Medium, cells are filtered through a 50 μm FilconTM (BD Biosciences) and then are analysed on a FACS Vantage SE Flow Cytometer fitted with an Automatic Cell Deposition Unit. Control cells are non-induced cells treated in an analogous manner. Positively stained cells are sorted as single cells into 96-well plates, containing Complete Medium containing 500 μgml^-1 ZeocinTM and are allowed to expand before reanalysis for receptor expression via antibody and ligand binding studies. One clone, 3H3, is selected for membrane preparation. All steps of the protocol are carried out at 4° C. and with pre-cooled reagents. The cell pellet is resuspended in 10 volumes of homogenisation buffer (50 mM N-2-hydroxyethylpiperazine-N'-2-ethanesulfonic acid (HEPES), 1 mM ethylenediamine tetra-acetic acid (EDTA), pH 7.4 with KOH, supplemented with 10^-6 M leupeptin (acetyl-leucyl-leucyl-arginal; Sigma L2884), 25 μgml^-1 bacitracin (Sigma B0125), 1 mM phenylmethylsulfonyl fluoride (PMSF) and 2×10^-6 M pepstain A (Sigma)). The cells are then homogenised by 2×15 sec bursts in a 1 L glass Waring blender, followed by centrifugation at 500 g for 20 min. The supernatant is then spun at 48,000 g for 30 min. The pellet is resuspended in homogenisation buffer (4× the volume of the original cell pellet) by vortexing for 5 sec, followed by homogenisation in a Dounce homogeniser (10-15 strokes). […]

human H1 receptor = biological target: T2, human H1 receptor (Homo sapiens, UniProt P35367); assay: Histamine H1 functional antagonist assay: determination of functional pKi values (FLIPR); format: cell-based; settings: CHO cells expressing human H1 receptor, histamine at EC80, read-out: average pKi (pKb) at H1 (converted)
T2 construct: expressed in transfected cells
Method: The human H1 receptor is cloned using known procedures described in the literature [Biochem. Biophys. Res. Commun., 201(2):894 (1994)]. Chinese hamster ovary (CHO) cells stably expressing the human H1 receptor are generated according to known procedures described in the literature [Br. J. Pharmacol., 117(6):1071 (1996)]. The histamine H1 cell line is seeded into non-coated black-walled clear bottom 384-well tissue culture plates in alpha minimum essential medium (Gibco/Invitrogen, cat no. 22561-021), supplemented with 10′)/0 dialysed foetal calf serum (Gibco/Invitrogen cat no. 12480-021) and 2 mM L-glutamine (Gibco/Invitrogen cat no 25030-024) and is maintained overnight at 5% CO2, 37° C. Excess medium is removed from each well to leave 10 μl. 30 μl loading dye (250 μM Brilliant Black, 2 μM Fluo-4 diluted in Tyrodes buffer+probenecid (145 mM NaCl, 2.5 mM KCl, 10 mM HEPES, 10 mM D-glucose, 1.2 mM MgCl2, 1.5 mM CaCl2, 2.5 mM probenecid, pH adjusted to 7.40 with NaOH 1.0 M)) is added to each well and the plates are incubated for 60 min at 5% CO2, 37° C. 10 μl of test compound, diluted to the required concentration in Tyrodes buffer+probenecid (or 10 μl Tyrodes buffer+probenecid as a control) is added to each well and the plate is incubated for 30 min at 37° C., 5% CO2. The plates are then placed into a FLIPR™(Molecular Devices, UK) to monitor cell fluorescence (λex=488 nm, λEM=540 nm) in the manner described in Sullivan et al., (In: Lambert DG (ed.), Calcium Signaling Protocols, New Jersey: Humana Press, 1999, 125-136) before and after the addition of 10 μl histamine at a concentration that results in the final assay concentration of histamine being EC80. Functional antagonism is indicated by a suppression of histamine induced increase in fluorescence, as measured by the FLIPR™ system (Molecular Devices). By means of concentration effect curves, functional affinities are determined using standard pharmacological mathematical analysis.

T2 sequence (P35367 whole entry): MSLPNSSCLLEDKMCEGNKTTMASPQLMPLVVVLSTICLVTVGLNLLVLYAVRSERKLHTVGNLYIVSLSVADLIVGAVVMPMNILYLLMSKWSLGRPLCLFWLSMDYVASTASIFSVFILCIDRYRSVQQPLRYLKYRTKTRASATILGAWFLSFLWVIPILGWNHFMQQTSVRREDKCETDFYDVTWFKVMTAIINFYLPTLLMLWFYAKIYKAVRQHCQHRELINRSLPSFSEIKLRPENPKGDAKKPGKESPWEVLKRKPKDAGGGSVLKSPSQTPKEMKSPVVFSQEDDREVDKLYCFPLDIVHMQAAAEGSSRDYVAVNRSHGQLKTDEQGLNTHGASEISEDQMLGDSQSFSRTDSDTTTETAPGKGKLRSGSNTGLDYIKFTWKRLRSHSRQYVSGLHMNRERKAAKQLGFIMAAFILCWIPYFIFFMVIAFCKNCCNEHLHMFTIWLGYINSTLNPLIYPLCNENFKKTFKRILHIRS
T1 sequence (Q9Y5N1 whole entry, species assumed): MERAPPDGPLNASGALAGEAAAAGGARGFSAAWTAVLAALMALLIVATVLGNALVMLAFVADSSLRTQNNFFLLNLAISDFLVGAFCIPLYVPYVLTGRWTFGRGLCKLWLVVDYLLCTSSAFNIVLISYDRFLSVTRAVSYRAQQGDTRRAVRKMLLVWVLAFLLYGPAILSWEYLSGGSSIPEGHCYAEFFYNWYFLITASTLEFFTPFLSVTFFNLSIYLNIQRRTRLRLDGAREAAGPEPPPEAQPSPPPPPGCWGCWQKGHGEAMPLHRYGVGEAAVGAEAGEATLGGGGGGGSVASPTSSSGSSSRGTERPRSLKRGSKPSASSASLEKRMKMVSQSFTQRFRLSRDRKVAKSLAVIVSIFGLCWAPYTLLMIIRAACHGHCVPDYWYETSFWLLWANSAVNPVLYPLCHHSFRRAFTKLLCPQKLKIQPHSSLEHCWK

Structure (SMILES)	Ki (histamine H3 receptor) [nM]	Ki (human H1 receptor) [nM]
CCCCCCc1cc(OC2CCN(C[C@H]3CC[C@H](C(=O)N4CCCCC4)CC3)CC2)c2ncccc2c1 [Example 51, 6-hexyl-8-[(1-{[trans-4-(1-piperidinylcarbonyl)cyclohexyl]methyl}-4-piperidinyl)oxy]quinoline]	> 316	< 100
CCCCCCc1cc(OC2CCN(C[C@H]3CC[C@H](C(=O)N(CC)CC)CC3)CC2)c2ncccc2c1 [Example 53, trans-N,N-diethyl-4-({4-[(6-hexyl-8-quinolinyl)oxy]-1-piperidinyl}methyl) cyclohexane carboxamide]	> 316	< 100
CCCCCCc1cc(OC2CCN(C[C@H]3CC[C@H](C(=O)NC(C)C)CC3)CC2)c2ncccc2c1 [Example 56, trans-4-({4-[(6-hexyl-8-quinolinyl)oxy]-1-piperidinyl}methyl)-N-(1-methylethyl) cyclohexane carboxamide]	> 316	< 10
CCCCCCc1cc(OC2CCN(C[C@H]3CC[C@H](C(=O)N4CCOCC4)CC3)CC2)c2ncccc2c1 [Example 57, 6-hexyl-8-[(1-{[trans-4-(4-morpholinylcarbonyl)cyclohexyl]methyl}-4-piperidinyl)oxy]quinoline]	> 316	< 100
CCCCCCc1cc(OC2CCN(C[C@H]3CC[C@H](C(=O)NCCCOC)CC3)CC2)c2ncccc2c1 [Example 58, trans-4-({4-[(6-hexyl-8-quinolinyl)oxy]-1-piperidinyl}methyl)-N-[3-(methyloxy)propyl]cyclohexane carboxamide]	> 316	< 100
CCCCc1cc(OC2CCN(C[C@H]3CC[C@H](C(=O)Nc4ccc(C)cc4)CC3)CC2)c2ncccc2c1 [Example 59, trans-4-({4-[(6-butyl-8-quinolinyl)oxy]-1-piperidinyl}methyl)-N-(4-methylphenyl) cyclohexane carboxamide]	> 316	< 100
CCCCc1cc(OC2CCN(C[C@H]3CC[C@H](C(=O)NCCC(C)C)CC3)CC2)c2ncccc2c1 [Example 61, trans-4-({4-[(6-butyl-8-quinolinyl)oxy]-1-piperidinyl}methyl)-N-(3-methylbutyl) cyclohexane carboxamide]	> 316	< 10
CCCCc1cc(OC2CCN(C[C@H]3CC[C@H](C(=O)N4CCCC4)CC3)CC2)c2ncccc2c1 [Example 62, 6-butyl-8-[(1-{[trans-4-(1-pyrrolidinylcarbonyl)cyclohexyl]methyl}-4-piperidinyl)oxy]quinoline]	> 316	< 10
CCCCc1cc(OC2CCN(C[C@H]3CC[C@H](C(=O)N4CCOCC4)CC3)CC2)c2ncccc2c1 [Example 63, 6-butyl-8-[(1-{[trans-4-(4-morpholinylcarbonyl)cyclohexyl]methyl}-4-piperidinyl)oxy]quinoline]	> 316	< 100
CCCCc1cc(OC2CCN(CCCCNC(=O)CC)CC2)c2ncccc2c1 [Example 64, N-(4-{4-[(6-Butyl-8-quinolinyl)oxy]-1-piperidinyl}butyl)propanamide]	> 316	< 10
CCCCc1cc(OC2CCN(CCCCNC(=O)CCC)CC2)c2ncccc2c1 [Example 65, N-(4-{4-[(6-butyl-8-quinolinyl)oxy]-1-piperidinyl}butyl) butanamide]	> 316	< 10

The next lines start with the values.

Ki (histamine H3 receptor) [nM]	Ki (human H1 receptor) [nM]	Structure (SMILES)
> 316	< 100	CCCCCCc1cc(OC2CCN(C[C@H]3CC[C@H](C(=O)NCCC(C)C)CC3)CC2)c2ncccc2c1 [Example 50, trans-4-({4-[(6-hexyl-8-quinolinyl)oxy]-1-piperidinyl}methyl)-N-(3-methylbutyl) cyclohexane carboxamide]
> 316	< 100	CCCCCCc1cc(OC2CCN(C[C@H]3CC[C@H](C(=O)NCC(C)(C)C)CC3)CC2)c2ncccc2c1 [Example 52, trans-N-(2,2-dimethylpropyl)-4-({4-[(6-hexyl-8-quinolinyl)oxy]-1-piperidinyl}methyl)cyclohexane carboxamide]
> 316	< 100	CCCCCCc1cc(OC2CCN(C[C@H]3CC[C@H](C(=O)N4CCCC4)CC3)CC2)c2ncccc2c1 [Example 54, 6-hexyl-8-[(1-{[trans-4-(1-pyrrolidinylcarbonyl)cyclohexyl]methyl}-4-piperidinyl)oxy]quinoline]
> 316	< 100	CCCCCCc1cc(OC2CCN(C[C@H]3CC[C@H](C(=O)NCCC)CC3)CC2)c2ncccc2c1 [Example 55, trans-4-({4-[(6-hexyl-8-quinolinyl)oxy]-1-piperidinyl}methyl)-N-propylcyclohexane carboxamide]
> 316	< 100	CCCCc1cc(OC2CCN(C[C@H]3CC[C@H](C(=O)NCc4ccc(C)cc4)CC3)CC2)c2ncccc2c1 [Example 60, trans-4-({4-[(6-butyl-8-quinolinyl)oxy]-1-piperidinyl}methyl)-N-[(4-methylphenyl)methyl]cyclohexane carboxamide]
> 316	< 100	CCCCc1cc(OC2CCN(CCCCNC(=O)C(C)C)CC2)c2ncccc2c1 [Example 66, N-(4-{4-[(6-butyl-8-quinolinyl)oxy]-1-piperidinyl}butyl)-2-methylpropanamide]
> 316	< 10	CCCCc1cc(OC2CCN(CCCCNC(=O)C(C)(C)C)CC2)c2ncccc2c1 [Example 67, N-(4-{4-[(6-butyl-8-quinolinyl)oxy]-1-piperidinyl}butyl)-2,2-dimethyl propanamide]
> 316	< 10	CCCCc1cc(OC2CCN(CCCNC(=O)C(C)C)CC2)c2ncccc2c1 [Example 68, N-(3-{4-[(6-butyl-8-quinolinyl)oxy]-1-piperidinyl}propyl)-2-methyl propanamide]
